In US12037415B2, “Peptide and pharmaceutical composition for treating an eye disease comprising the same as an active pharmaceutical ingredient” (YuYu Pharma, Inc., priority 2017, dated 2024):
Non-standard residues stand in square brackets, D forms with d. Residues, ends and D or L forms follow the SMILES beside them. ξ: configuration not given here. Hyp = O=C(O)[C@@H]1C[C@@H](O)CN1; Ile(3ξ) = CCC(C)[C@H](N)C(=O)O; Thr(3ξ) = CC(O)[C@H](N)C(=O)O; hSer = N[C@@H](CCO)C(=O)O

Tests used:
[1] = tested on: cornea of rats with dry eye syndrome (ELGE); assay: Corneal permeability of fluorescent dye (corneal damage) in rats with ELGE-induced dry eye syndrome; type: in vivo, rat; settings: 0.3% solution, day 14 after the administration, study of YDE-001 to YDE-028 (Table 16)
From the text: In order to evaluate the eye protection effect on dry eye syndrome by YDE-001 to YDE-028 prepared in Working Example 1, a total of 320 Sprague-Dawley-type male rats (OrientBio, Seungnam, Korea) were adapted for 7 days. Thereafter, dry eye syndrome was induced in 264 test rats through extraorbital lacrimal gland excision (hereinafter, ELGE). 8 test rats without the eye abnormality were subjected to a sham operation as a control group.
The rats were systemically anesthetized by inhaling a mixed gas of 2% to 3% of isoflurane (Hana Pharm. Co., Hwasung, Korea), 70% of N2O, and 28.6% of O2 using a rodent anesthesia machine (Surgivet, Waukesha, Wis., USA) and a ventilator (Model 687, Harvard Apparatus, Cambridge, UK). Thereafter, the extraorbital lacrimal gland located in the subdermal area above the masseter muscle and under the optic nerve was excised through a transverse incision in a size of 10 mm on the anterior part of the left ear tragus. The skin was sutured by a general method. […] After 6 days following the ELGE operation, confirmation was performed through the Schirmer test by measuring the amount of tear secretion whether dry eye syndrome had been induced. Meanwhile, each rat of the control group with the sham operation was checked for the presence and location of the extraorbital lacrimal gland through a skin incision, and the skin was then sutured without the excision thereof (FIG. 134).
In addition, in order to evaluate the eye protection effect on dry eye syndrome by YDE-029 to YDE-043 prepared in Working Example 1, a total of 200 Sprague-Dawley-type male rats (OrientBio, Seungnam, Korea) were adapted for 7 days. Dry eye syndrome was induced in 165 test rats through the ELGE. 8 test rats without the eye abnormality were subjected to the sham operation as a control group. The ELGE was carried out as described above.
(§1) For YDE-001 to YDE-028, YY-102 and the 28 YDE-series were each dissolved in physiological saline at a concentration of 3 mg/ml and administered at a dose of 5 μl/eye at 9:30 am and 3:30 pm daily for 14 days after 7 days from the ELGE operation for a total of 28 times. The DS solution was dissolved in physiological saline at a concentration of 30 mg/ml and administered at a dose of 5 μl/eye twice a day for 14 days after 7 days from the ELGE operation for a total of 28 times. For the sham control and the ELGE control groups, the same stimulation as the administration was applied. In order to prevent excessive eye dryness, the same volume of physiological saline was applied in the same manner in place of the test substances.
as §1, with “Further, For YDE-029” for “For YDE-001”, “Further, For YDE-029 to YDE-043,” for “For YDE-001 to YDE-028,”, “YDE-029 to YDE-043, YY-102 and” for “YDE-001 to YDE-028, YY-102 and”, “and the 15 YDE-series were” for “and the 28 YDE-series were”, “the test substances (FIG. 137).” for “the test substances.”
After YDE-001 to YDE-028 were each administered to the eyes […], the changes in the corneal permeability were checked.
In order to measure the corneal permeability, Zolethyl 50™ (Virbac Lab., Carros, France), an animal anesthetic, was intraperitoneally injected at a dose of 25 mg/kg. Thereafter, saline containing a 1% (v/v) fluorescent solution (fluorescein sodium salt, Tokyo Kasei Kogyo Co., Tokyo, Japan) was applied to the eyes at a dose of 5 μl/eye. The eyes thus treated were closed and fixed with a tape. After 1 hour, the remaining fluorescent solution was removed using a cotton swab (FIG. 142). […]

[2] = Stability in aqueous solution, amount of related substances under long-term storage conditions; type: physicochemical; settings: glass vial, 25° C., 75% RH
Protocol: In order to confirm the stability of each test substance in an aqueous solution, […] of each sample was dissolved in 1 ml of water to a concentration of 1 mg/ml, which was then charged to a glass vial, plugged with a rubber cap, sealed with an aluminum cap, and stored under long-term storage conditions (25° C., 75% RH). The stability of the test substance was evaluated by measuring the amount of related substances at the time of one week, two weeks, four weeks, eight weeks, and twelve weeks under the long-term storage conditions.

Amount of related substances (%; after 12 weeks) [2] [%]	Structure (SMILES)	Permeability of fluorescent dye (%) [1] [%]
6.72	CC(C)C[C@H](NC(=O)CNC(=O)[C@H](Cc1c[nH]c2ccccc12)NC(=O)[C@H](CCC(N)=O)NC(=O)CNC(=O)[C@@H]1C[C@@H](O)CN1)C(=O)N[C@@H](C)C(=O)NCC(=O)N1CCC[C@H]1C(=O)N[C@@H](CCCCN)C(=O)O [YDE-014, HyP-Gly-Gln-Trp-Gly-Leu-Ala-Gly-Pro-Lys] (H-[Hyp]GQWGLAGPK-OH)	31.15 ± 10.87
13.05	CC(C)C[C@H](NC(=O)[C@@H](NC(=O)[C@H](CC(=O)O)NC(=O)[C@H](CCC(N)=O)NC(=O)CNC(=O)[C@@H]1C[C@@H](O)CN1)C(C)C)C(=O)N[C@@H](C)C(=O)NCC(=O)N1CCC[C@H]1C(=O)N[C@@H](CCCCN)C(=O)O [YDE-015, HyP-Gly-Gln-Asp-Val-Leu-Ala-Gly-Pro-Lys] (H-[Hyp]GQDVLAGPK-OH)	15.95 ± 6.48
25.39	CC(C)C[C@H](NC(=O)[C@H](C)NC(=O)[C@H](CC(=O)O)NC(=O)[C@H](CCC(N)=O)NC(=O)CNC(=O)[C@@H]1C[C@@H](O)CN1)C(=O)N[C@@H](C)C(=O)NCC(=O)N1CCC[C@H]1C(=O)N[C@@H](CCCCN)C(=O)O [YDE-018, HyP-Gly-Gln-Asp-Ala-Leu-Ala-Gly-Pro-Lys] (H-[Hyp]GQDALAGPK-OH)	38.19 ± 10.96

Continued, molecule first:

Structure (SMILES)	Amount of related substances (%; after 12 weeks) [2] [%]	Permeability of fluorescent dye (%) [1] [%]
CCC(C)[C@H](NC(=O)[C@H](CC(=O)O)NC(=O)[C@H](CCC(N)=O)NC(=O)CNC(=O)[C@@H]1C[C@@H](O)CN1)C(=O)N[C@@H](CC(C)C)C(=O)N[C@@H](C)C(=O)NCC(=O)N1CCC[C@H]1C(=O)N[C@@H](CCCCN)C(=O)O (stereo partly drawn) [YDE-016, HyP-Gly-Gln-Asp-Ile-Leu-Ala-Gly-Pro-Lys] (H-[Hyp]GQD[Ile(3ξ)]LAGPK-OH)	11.33	24.57 ± 10.34
CC(C)C[C@H](NC(=O)[C@H](CO)NC(=O)[C@H](CC(=O)O)NC(=O)[C@H](CCC(N)=O)NC(=O)CNC(=O)[C@@H]1C[C@@H](O)CN1)C(=O)N[C@@H](C)C(=O)NCC(=O)N1CCC[C@H]1C(=O)N[C@@H](CCCCN)C(=O)O [YDE-023, HyP-Gly-Gln-Asp-Ser-Leu-Ala-Gly-Pro-Lys] (H-[Hyp]GQDSLAGPK-OH)	30.66	26.51 ± 8.18
CC(C)C[C@H](NC(=O)[C@@H](NC(=O)[C@H](CC(=O)O)NC(=O)[C@H](CCC(N)=O)NC(=O)CNC(=O)[C@@H]1C[C@@H](O)CN1)C(C)O)C(=O)N[C@@H](C)C(=O)NCC(=O)N1CCC[C@H]1C(=O)N[C@@H](CCCCN)C(=O)O (stereo partly drawn) [YDE-024, HyP-Gly-Gln-Asp-Thr-Leu-Ala-Gly-Pro-Lys] (H-[Hyp]GQD[Thr(3ξ)]LAGPK-OH)	20.59	30.63 ± 10.41
CC(C)C[C@H](NC(=O)CNC(=O)[C@H](CCO)NC(=O)[C@H](CCC(N)=O)NC(=O)CNC(=O)[C@@H]1C[C@@H](O)CN1)C(=O)N[C@@H](C)C(=O)NCC(=O)N1CCC[C@H]1C(=O)N[C@@H](CCCCN)C(=O)O [YDE-026, HyP-Gly-Gln-Ser(Homo)-Gly-Leu-Ala-Gly-Pro-Lys] (H-[Hyp]GQ[hSer]GLAGPK-OH)	10.15	22.63 ± 11.23
